US10004701B2, “Methods and compositions for treating infection” (UNIVERSITY OF ROCHESTER, priority 2012, dated 2018)
Structures can show the parent of a compound that is named as a salt. Where two headings read alike, the source gives them in different places.

Tests used:
Assay in all cases: AK assay 384-well format, Prestwick library screening
E. coli = format: cell-based, Escherichia coli; conditions: Escherichia coli, 3 h, 50 μM final drug concentration
[1] = tested on: S. aureus strain USA300-0114; format: cell-based, Staphylococcus aureus; conditions: Staphylococcus aureus, USA300, 3 h, 50 μM final drug concentration
E. cloacae = format: cell-based, Enterobacter cloacae; conditions: Enterobacter cloacae, 3 h, 50 μM final drug concentration
[2] = tested on: A. baumannii strain 98-37-09; format: cell-based, Acinetobacter baumannii; conditions: Acinetobacter baumannii, 983709, 3 h, 50 μM final drug concentration
K. pneumoniae = format: cell-based, Klebsiella pneumoniae; conditions: Klebsiella pneumoniae, 3 h, 50 μM final drug concentration
E. faecium = format: cell-based, Enterococcus faecium; conditions: Enterococcus faecium, 3 h, 50 μM final drug concentration
P. aeruginosa = format: cell-based, Pseudomonas aeruginosa; conditions: Pseudomonas aeruginosa, 3 h, 50 μM final drug concentration
[3] = 384-well format, cutoff for positive-scoring molecules 3-fold increase, read-out: AK-based Prestwick Library Screening Results, E. coli (increase in extracellular AK activity)
[4] = 384-well format, cutoff for positive-scoring molecules 3-fold increase, read-out: AK-based Prestwick Library Screening Results, S. aureus (increase in extracellular AK activity)
[5] = 384-well format, cutoff for positive-scoring molecules 3-fold increase, read-out: AK-based Prestwick Library Screening Results, E. cloacae (increase in extracellular AK activity)
[6] = 384-well format, cutoff for positive-scoring molecules 3-fold increase, read-out: AK-based Prestwick Library Screening Results, A. baumannii (increase in extracellular AK activity)
[7] = 384-well format, cutoff for positive-scoring molecules 3-fold increase, read-out: AK-based Prestwick Library Screening Results, K. pneumoniae (increase in extracellular AK activity)
[8] = 384-well format, cutoff for positive-scoring molecules 3-fold increase, read-out: AK-based Prestwick Library Screening Results, E. faecium (increase in extracellular AK activity)
[9] = 384-well format, cutoff for positive-scoring molecules 3-fold increase, read-out: AK-based Prestwick Library Screening Results, P. aeruginosa (increase in extracellular AK activity)
[10] = planktonic, cutoff for positive-scoring molecules 3-fold increase, read-out: AK-based Prestwick Library Screening Results, E. coli (fold increase in extracellular AK activity)
[11] = planktonic, cutoff for positive-scoring molecules 3-fold increase, read-out: AK-based Prestwick Library Screening Results, S. aureus (fold increase in extracellular AK activity)
[12] = planktonic, cutoff for positive-scoring molecules 3-fold increase, read-out: AK-based Prestwick Library Screening Results, E. cloacae (fold increase in extracellular AK activity)
[13] = planktonic, cutoff for positive-scoring molecules 3-fold increase, read-out: AK-based Prestwick Library Screening Results, A. baumannii (fold increase in extracellular AK activity)
[14] = planktonic, cutoff for positive-scoring molecules 3-fold increase, read-out: AK-based Prestwick Library Screening Results, K. pneumoniae (fold increase in extracellular AK activity)
[15] = planktonic, cutoff for positive-scoring molecules 3-fold increase, read-out: AK-based Prestwick Library Screening Results, E. faecium (fold increase in extracellular AK activity)
[16] = planktonic, cutoff for positive-scoring molecules 3-fold increase, read-out: AK-based Prestwick Library Screening Results, P. aeruginosa (fold increase in extracellular AK activity)
[17] = cutoff for positive-scoring molecules 3-fold increase, read-out: AK-based Prestwick Library Screening Results, E. coli (fold increase in extracellular AK activity)
[18] = cutoff for positive-scoring molecules 3-fold increase, read-out: AK-based Prestwick Library Screening Results, S. aureus (fold increase in extracellular AK activity)
[19] = cutoff for positive-scoring molecules 3-fold increase, read-out: AK-based Prestwick Library Screening Results, E. cloacae (fold increase in extracellular AK activity)
[20] = cutoff for positive-scoring molecules 3-fold increase, read-out: AK-based Prestwick Library Screening Results, A. baumannii (fold increase in extracellular AK activity)
[21] = cutoff for positive-scoring molecules 3-fold increase, read-out: AK-based Prestwick Library Screening Results, K. pneumoniae (fold increase in extracellular AK activity)
[22] = cutoff for positive-scoring molecules 3-fold increase, read-out: AK-based Prestwick Library Screening Results, E. faecium (fold increase in extracellular AK activity)
[23] = cutoff for positive-scoring molecules 3-fold increase, read-out: AK-based Prestwick Library Screening Results, P. aeruginosa (fold increase in extracellular AK activity)
[24] = planktonic, […], read-out: AK-based Prestwick Library Screening Results, E. coli (fold increase in extracellular AK activity)
[25] = planktonic, […], read-out: AK-based Prestwick Library Screening Results, S. aureus (fold increase in extracellular AK activity)
[26] = planktonic, […], read-out: AK-based Prestwick Library Screening Results, E. cloacae (fold increase in extracellular AK activity)
[27] = planktonic, […], read-out: AK-based Prestwick Library Screening Results, A. baumannii (fold increase in extracellular AK activity)
[28] = planktonic, […], read-out: AK-based Prestwick Library Screening Results, K. pneumoniae (fold increase in extracellular AK activity)
[29] = planktonic, […], read-out: AK-based Prestwick Library Screening Results, E. faecium (fold increase in extracellular AK activity)
[30] = planktonic, […], read-out: AK-based Prestwick Library Screening Results, P. aeruginosa (fold increase in extracellular AK activity)

Nc1ccc(S(=O)(=O)Nc2ncccn2)cc1 [Sulfadiazine]
fold induction at 50 µM (E. coli; [3]): 1 | fold induction at 50 µM [1, 4]: 0.7 | fold induction at 50 µM (E. cloacae; [5]): 0.9 | fold induction at 50 µM [2, 6]: 1.2 | fold induction at 50 µM (K. pneumoniae; [7]): 0.7 | fold induction at 50 µM (E. faecium; [8]): 0.8 | fold induction at 50 µM (P. aeruginosa; [9]): 0.8

COc1cc(NS(=O)(=O)c2ccc(N)cc2)nc(OC)n1 [Sulfadimethoxine]
fold induction at 50 µM (E. coli; [10]): 0.6 | fold induction at 50 µM [1, 11]: 0.5 | fold induction at 50 µM (E. cloacae; [12]): 0.4 | fold induction at 50 µM [2, 13]: 0.9 | fold induction at 50 µM (K. pneumoniae; [14]): 0.5 | fold induction at 50 µM (E. faecium; [15]): 0.9 | fold induction at 50 µM (P. aeruginosa; [16]): 0.4

COc1ncnc(NS(=O)(=O)c2ccc(N)cc2)c1OC [Sulfadoxine]
fold induction at 50 µM (E. coli; planktonic E. coli, positive cutoff 3-fold increase, read-out: AK-based Prestwick library screening result, E. coli (fold increase in extracellular AK activity)): 1 | fold induction at 50 µM ([1]; planktonic S. aureus, positive cutoff 3-fold increase, read-out: AK-based Prestwick library screening result, S. aureus (fold increase in extracellular AK activity)): 0.9 | fold induction at 50 µM (E. cloacae; planktonic E. cloacae, positive cutoff 3-fold increase, read-out: AK-based Prestwick library screening result, E. cloacae (fold increase in extracellular AK activity)): 1.3 | fold induction at 50 µM ([2]; planktonic A. baumannii, positive cutoff 3-fold increase, read-out: AK-based Prestwick library screening result, A. baumannii (fold increase in extracellular AK activity)): 2.9 | fold induction at 50 µM (K. pneumoniae; planktonic K. pneumoniae, positive cutoff 3-fold increase, read-out: AK-based Prestwick library screening result, K. pneumoniae (fold increase in extracellular AK activity)): 1 | fold induction at 50 µM (E. faecium; planktonic E. faecium, positive cutoff 3-fold increase, read-out: AK-based Prestwick library screening result, E. faecium (fold increase in extracellular AK activity)): 1 | fold induction at 50 µM (P. aeruginosa; planktonic P. aeruginosa, positive cutoff 3-fold increase, read-out: AK-based Prestwick library screening result, P. aeruginosa (fold increase in extracellular AK activity)): 1

[H]/N=C(/N)NS(=O)(=O)c1ccc(N)cc1 [Sulfaguanidine]
fold induction at 50 µM (E. coli; [3]): 0.5 | fold induction at 50 µM [1, 4]: 0.5 | fold induction at 50 µM (E. cloacae; [5]): 0.4 | fold induction at 50 µM [2, 6]: 0.5 | fold induction at 50 µM (K. pneumoniae; [7]): 0.6 | fold induction at 50 µM (E. faecium; [8]): 1 | fold induction at 50 µM (P. aeruginosa; [9]): 0.5

Cc1ccnc(NS(=O)(=O)c2ccc(N)cc2)n1 [Sulfamerazine]
fold induction at 50 µM (E. coli; [17]): 1.1 | fold induction at 50 µM [1, 18]: 0.9 | fold induction at 50 µM (E. cloacae; [19]): 1.9 | fold induction at 50 µM [2, 20]: 2.1 | fold induction at 50 µM (K. pneumoniae; [21]): 1 | fold induction at 50 µM (E. faecium; [22]): 1 | fold induction at 50 µM (P. aeruginosa; [23]): 1

COc1cnc(NS(=O)(=O)c2ccc(N)cc2)nc1 [Sulfameter]
fold induction at 50 µM (E. coli; [24]): 1.3 | fold induction at 50 µM [1, 25]: 1.2 | fold induction at 50 µM (E. cloacae; [26]): 1.2 | fold induction at 50 µM [2, 27]: 2.3 | fold induction at 50 µM (K. pneumoniae; [28]): 1 | fold induction at 50 µM (E. faecium; [29]): 1 | fold induction at 50 µM (P. aeruginosa; [30]): 1.1

Cc1cc(C)nc(NS(=O)(=O)c2ccc(N)cc2)n1 [Sulfamethazine sodium salt]
fold induction at 50 µM (E. coli; [17]): 1 | fold induction at 50 µM [1, 18]: 1.4 | fold induction at 50 µM (E. cloacae; [19]): 1.4 | fold induction at 50 µM [2, 20]: 1.6 | fold induction at 50 µM (K. pneumoniae; [21]): 1 | fold induction at 50 µM (E. faecium; [22]): 1 | fold induction at 50 µM (P. aeruginosa; [23]): 1.1

Cc1nnc(NS(=O)(=O)c2ccc(N)cc2)s1 [Sulfamethizole]
fold induction at 50 µM (E. coli; [10]): 1 | fold induction at 50 µM [1, 11]: 0.7 | fold induction at 50 µM (E. cloacae; [12]): 0.9 | fold induction at 50 µM [2, 13]: 1.4 | fold induction at 50 µM (K. pneumoniae; [14]): 0.7 | fold induction at 50 µM (E. faecium; [15]): 0.9 | fold induction at 50 µM (P. aeruginosa; [16]): 0.8

COc1ccc(NS(=O)(=O)c2ccc(N)cc2)nn1 [Sulfamethoxypyridazine]
fold induction at 50 µM (E. coli; planktonic, cutoff for positive 3-fold increase, read-out: AK-based Prestwick Library Screening Results, E. coli (fold increase in extracellular AK activity)): 0.5 | fold induction at 50 µM ([1]; planktonic, cutoff for positive 3-fold increase, read-out: AK-based Prestwick Library Screening Results, S. aureus (fold increase in extracellular AK activity)): 0.4 | fold induction at 50 µM (E. cloacae; planktonic, cutoff for positive 3-fold increase, read-out: AK-based Prestwick Library Screening Results, E. cloacae (fold increase in extracellular AK activity)): 0.3 | fold induction at 50 µM ([2]; planktonic, cutoff for positive 3-fold increase, read-out: AK-based Prestwick Library Screening Results, A. baumannii (fold increase in extracellular AK activity)): 0.7 | fold induction at 50 µM (K. pneumoniae; planktonic, cutoff for positive 3-fold increase, read-out: AK-based Prestwick Library Screening Results, K. pneumoniae (fold increase in extracellular AK activity)): 0.5 | fold induction at 50 µM (E. faecium; planktonic, cutoff for positive 3-fold increase, read-out: AK-based Prestwick Library Screening Results, E. faecium (fold increase in extracellular AK activity)): 0.9 | fold induction at 50 µM (P. aeruginosa; planktonic, cutoff for positive 3-fold increase, read-out: AK-based Prestwick Library Screening Results, P. aeruginosa (fold increase in extracellular AK activity)): 0.3

COc1cc(NS(=O)(=O)c2ccc(N)cc2)ncn1 [Sulfamonomethoxine]
fold induction at 50 µM (E. coli; [10]): 0.9 | fold induction at 50 µM [1, 11]: 0.7 | fold induction at 50 µM (E. cloacae; [12]): 1.1 | fold induction at 50 µM [2, 13]: 1.6 | fold induction at 50 µM (K. pneumoniae; [14]): 0.8 | fold induction at 50 µM (E. faecium; [15]): 0.9 | fold induction at 50 µM (P. aeruginosa; [16]): 1

Nc1ccc(S(N)(=O)=O)cc1 [Sulfanilamide]
fold induction at 50 µM (E. coli; [10]): 0.5 | fold induction at 50 µM [1, 11]: 0.4 | fold induction at 50 µM (E. cloacae; [12]): 0.4 | fold induction at 50 µM [2, 13]: 1.5 | fold induction at 50 µM (K. pneumoniae; [14]): 0.6 | fold induction at 50 µM (E. faecium; [15]): 0.9 | fold induction at 50 µM (P. aeruginosa; [16]): 0.5

Nc1ccc(S(=O)(=O)Nc2ccnn2-c2ccccc2)cc1 [Sulfaphenazole]
fold induction at 50 µM (E. coli; [3]): 0.8 | fold induction at 50 µM [1, 4]: 0.8 | fold induction at 50 µM (E. cloacae; [5]): 0.8 | fold induction at 50 µM [2, 6]: 1.4 | fold induction at 50 µM (K. pneumoniae; [7]): 0.7 | fold induction at 50 µM (E. faecium; [8]): 0.8 | fold induction at 50 µM (P. aeruginosa; [9]): 0.8

Nc1ccc(S(=O)(=O)Nc2ccccn2)cc1 [Sulfapyridine]
fold induction at 50 µM (E. coli; [24]): 1.2 | fold induction at 50 µM [1, 25]: 1.4 | fold induction at 50 µM (E. cloacae; [26]): 1.6 | fold induction at 50 µM [2, 27]: 2.2 | fold induction at 50 µM (K. pneumoniae; [28]): 0.9 | fold induction at 50 µM (E. faecium; [29]): 1 | fold induction at 50 µM (P. aeruginosa; [30]): 1.1
